Measured values from paper PMC8344021, “Discovery of Small Molecule Bak Activator for Lung Cancer Therapy” (Theranostics, 2021).
Entries after “also recorded” stand apart in the source; their conditions may differ.

Assays:
Assay type in all cases: cell-based, human
A549 cells = assay: Dynamic BH3 profiling (DBP), mitochondrial priming; details: 0, 0.25, 0.5, 0.75, 1.0 µM, 16h
Protocol: (§1) DBP using Bim peptide was carried out as described previously [24]-[26]. After treatment with BKA-073, venetoclax (ABT-199) or DMSO control for 16h, cells were collected, washed and resuspended at 2 x 10^6 cells/ mL in mannitol experimental buffer (MEB) [150 mM D-mannitol, 10 mM HEPES-KOH (pH 7.5), 50 mM KCl, 20 μM EGTA, 20 μM EDTA, 0.1% BSA, and 5 mM succinate] as described. One volume of the 4x cell suspension was added to one volume of a 4x dye solution containing 4 μM JC-1, […] oligomycin, 0.02% digitonin, 20mM β-mercaptoethanol in MEB. The 2x cell/dye mixture was allowed to rest for 5-10 min at room temperature to allow for permeabilization and JC-1 staining. A total of 15μl of the 2x cell/dye mixture was loaded into a 384-well plate that contained 15µL of Bim BH3 peptide (0.03, 0.1, 0.3, 1, and 3 μM) in MEB, shaken for 15 s inside the reader, and the fluorescence at 590 nm monitored every 5 min for 180 min at 32 °C. The dynamic BH3 profile (∆ % Priming) was calculated as described [24]-[26].
The BH3 death domain is known to be required for the proapoptotic function of Bak. […] The top 500 compounds determined to have the highest affinity for the BH3 domain were obtained from the NCI and tested for cytotoxicity in human lung cancer cells (i.e. H1299, H460 and A549 cells) by sulforhodamine B (SRB) assay for further screening as described, [36]. […]

[1] = system: NSCLC and SCLC cell lines; assay: Dynamic BH3 profiling in panel of NSCLC and SCLC cell lines; details: 1μM, 16h
Protocol: as §1
Figure 1 Discovery of small molecule BKA-073 as a lead compound that targets BH3 domain of Bak and induces mitochondrial priming and apoptosis in lung cancer cells. (A) Schematic illustration of screening strategies used to identify the lead Bak agonist BKA-073 and its chemical structure. […] (C) Expression levels of Bak were analyzed by Western blot in NSCLC and SCLC cell lines. […]

[2] = system: MDA-MB-231, MCF7, HCT-116, Ramos, OPM-1, PANC-1 and U2OS cell lines; assay: Dynamic BH3 profiling in other types of cancer cell lines; details: 1μM, 16h
Protocol: as §1
Figure S2. BKA-073 induces mitochondrial priming and apoptosis in various type of cancers. (A) Expression levels of Bak were analyzed by Western blot in various type of cancer cell lines. (B-C) Various type of cancer cell lines were treated with BKA -073 (1µM) for 16h or 72h, followed by analysis of dynamic BH3 profiling (B) or apoptotic cell death (C), respectively. […]

[3] = system: Cyt c release in A549 cells; assay: Cyt c release from mitochondria in cells (subcellular fractionation, Western blot); details: 24h
Protocol: To further test whether Bak is required for BKA-073 induction of Cyt c release, A549 parental, Bak^-/-, Bax^-/- and DKO cells were treated with BKA-073 (1 μM) for 24h, followed by analysis of Cyt c release from mitochondria. […] To further test whether BKA-073 directly induces Cyt c release from isolated mitochondria in a Bak- but not Bax-dependent fashion, purified mitochondria were isolated from A549 parental, Bak^-/-, Bax^-/- and DKO cells. The isolated mitochondria were treated with BKA-073 (1 μM) for 30 min at 30 °C. After centrifugation at 13000 g for 5 min, Cyt c in the supernatant (i.e., Cyt c release) was analyzed by Western blot. […]
Bak proteins was eluted with buffer B (20 mM Tris, pH 8.0, 120 mM NaCl, 300 mM imidazole, 10% glycerol with protease inhibitor). The elution peak of interest was checked by SDS -PAGE electrophoresis. The purified mouse Bak protein was dialyzed with buffer A . […]
Subcellular fractionation
Cells (2 ×107) were washed with cold 1× PBS and resuspended in isotonic mitochondrial buffer (210 mM mannitol, 70 mM sucrose, 1 mM EGTA, 10 mM Hepes, pH 7.5) containing 10% protease inhibitor mixture set I, homogenized with a polytron homogenizer, and then centrifuged at 1000 × g for 5 min to remove the nuclei and unbroken cells. The supernatant was centrifuged at 13,000 × g for 10 min to pellet mitochondria. […] Cyt c was analyzed

SMILES: COc1ccc2nc3ccccc3c(NCCNCC(C)O)c2c1 (centres unmarked) [BKA-073]
- induction of mitochondrial priming (∆% priming) (A549 cells): in a dose-dependent manner
- induction of mitochondrial priming [1]: potently induced
- induction of mitochondrial priming [2]: potently induced
- Cyt c release ([3]; A549 Bax-/- cells, 1 μM): Cyt c release was observed
- Cyt c release ([3]; A549 parental cells): promoted Cyt c release from mitochondria; also recorded: Cyt c release was observed
